Measurements reported in publication PMC8703412 (Pharmaceuticals, 2021).
≈ marks a conversion by molar mass, not a printed value. Like-named read-outs stand apart in the source and are kept apart here.

Tests used:
Assay in all cases: microbe, parasite or virus in culture
Assay type in all cases: cell-based, Mycobacterium tuberculosis
Settings in all cases: for MIC: Mycobacterium tuberculosis
[1] = tested on: Mtb. Praha 1 (MDR-TB)
[2] = tested on: Mtb. Praha 4 (MDR-TB)
[3] = tested on: Mtb. Praha 131 (XDR-TB)
[4] = tested on: Mtb. 234/2005 (MDR-TB)
[5] = tested on: Mtb. 9449/2007 (MDR-TB)
[6] = tested on: Mtb. 7357/1998 (MDR-TB)
[7] = tested on: Mtb. 8666/2010 (MDR-TB)
[8] = 336 h, read-out: MIC Mtb. Praha 1 14 d
[9] = 504 h, read-out: MIC Mtb. Praha 1 21 d
[10] = 336 h, read-out: MIC Mtb. Praha 4 14 d
[11] = 504 h, read-out: MIC Mtb. Praha 4 21 d
[12] = 336 h, read-out: MIC Mtb. Praha 131 14 d
[13] = 504 h, read-out: MIC Mtb. Praha 131 21 d
[14] = 336 h, read-out: MIC Mtb. 234/2005 14 d
[15] = 504 h, read-out: MIC Mtb. 234/2005 21 d
[16] = 336 h, read-out: MIC Mtb. 9449/2007 14 d
[17] = 504 h, read-out: MIC Mtb. 9449/2007 21 d
[18] = 336 h, read-out: MIC Mtb. 7357/1998 14 d
[19] = 504 h, read-out: MIC Mtb. 7357/1998 21 d
[20] = 336 h, read-out: MIC Mtb. 8666/2010 14 d
[21] = 504 h, read-out: MIC Mtb. 8666/2010 21 d

Compound | MIC [1, 8] [µM] | MIC [1, 9] [µM] | MIC [2, 10] [µM] | MIC [2, 11] [µM] | MIC [3, 12] [µM] | MIC [3, 13] [µM] | MIC [4, 14] [µM] | MIC [4, 15] [µM] | MIC [5, 16] [µM] | MIC [5, 17] [µM] | MIC [6, 18] [µM] | MIC [6, 19] [µM] | MIC [7, 20] [µM] | MIC [7, 21] [µM] | further results
5-Isopropyl-2-methylphenyl (E)-2-(2-isonicotinoylhydrazineylidene)propanoate [3k] |  |  |  |  |  |  |  |  |  |  |  |  |  |  | MIC Mtb. Praha 1 14 d ([1]; 14 d incubation): 125 µM; MIC Mtb. Praha 1 21 d ([1]; 21 d incubation): 125 µM; MIC Mtb. Praha 4 14 d ([2]; 14 d incubation): 16 µM; MIC Mtb. Praha 4 21 d ([2]; 21 d incubation): 32 µM; MIC Mtb. Praha 131 14 d ([3]; 14 d incubation): 32 µM; MIC Mtb. Praha 131 21 d ([3]; 21 d incubation): 64 µM; MIC Mtb. 234/2005 14 d ([4]; 14 d incubation): 32 µM; MIC Mtb. 234/2005 21 d ([4]; 21 d incubation): 32 µM; MIC Mtb. 9449/2007 14 d ([5]; 14 d incubation): 32 µM; MIC Mtb. 9449/2007 21 d ([5]; 21 d incubation): 32 µM; MIC Mtb. 7357/1998 14 d ([6]; 14 d incubation): 32 µM; MIC Mtb. 7357/1998 21 d ([6]; 21 d incubation): 32 µM; MIC Mtb. 8666/2010 14 d ([7]; 14 d incubation): 16 µM; MIC Mtb. 8666/2010 21 d ([7]; 21 d incubation): 32 µM
C/C(=N\NC(=O)c1ccncc1)C(=O)Oc1ccccc1 [3b, Phenyl (E)-2-(2-isonicotinoylhydrazineylidene)propanoate] | 16 (≈ 4.53 µg/mL) | 16 (≈ 4.53 µg/mL) | 16 (≈ 4.53 µg/mL) | 16 (≈ 4.53 µg/mL) | 16 (≈ 4.53 µg/mL) | 16 (≈ 4.53 µg/mL) | 32 (≈ 9.07 µg/mL) | 32 (≈ 9.07 µg/mL) | 32 (≈ 9.07 µg/mL) | 32 (≈ 9.07 µg/mL) | 16 (≈ 4.53 µg/mL) | 16 (≈ 4.53 µg/mL) | 16 (≈ 4.53 µg/mL) | 16 (≈ 4.53 µg/mL) | 
COc1ccc(OC(=O)/C(C)=N/NC(=O)c2ccncc2)cc1 [3d, 4-Methoxyphenyl (E)-2-(2-isonicotinoylhydrazineylidene)propanoate] | 8 (≈ 2.51 µg/mL) | 16 (≈ 5.01 µg/mL) | 16 (≈ 5.01 µg/mL) | 32 (≈ 10 µg/mL) | 8 (≈ 2.51 µg/mL) | 16 (≈ 5.01 µg/mL) | 16 (≈ 5.01 µg/mL) | 32 (≈ 10 µg/mL) | 16 (≈ 5.01 µg/mL) | 16 (≈ 5.01 µg/mL) | 16 (≈ 5.01 µg/mL) | 16 (≈ 5.01 µg/mL) | 8 (≈ 2.51 µg/mL) | 16 (≈ 5.01 µg/mL) | 
C/C(=N\NC(=O)c1ccncc1)C(=O)Oc1ccc(Cl)cc1 [3g, 4-Chlorophenyl (E)-2-(2-isonicotinoylhydrazineylidene)propanoate] | 8 (≈ 2.54 µg/mL) | 8 (≈ 2.54 µg/mL) | 16 (≈ 5.08 µg/mL) | 16 (≈ 5.08 µg/mL) | 8 (≈ 2.54 µg/mL) | 8 (≈ 2.54 µg/mL) | 16 (≈ 5.08 µg/mL) | 32 (≈ 10.2 µg/mL) | 16 (≈ 5.08 µg/mL) | 16 (≈ 5.08 µg/mL) | 16 (≈ 5.08 µg/mL) | 16 (≈ 5.08 µg/mL) | 8 (≈ 2.54 µg/mL) | 16 (≈ 5.08 µg/mL) | 
C/C(=N\NC(=O)c1ccncc1)C(=O)Oc1cccc2ccccc12 [3i, Naphthalen-1-yl (E)-2-(2-isonicotinoylhydrazineylidene)propanoate] | 64 (≈ 21.3 µg/mL) | 125 (≈ 41.7 µg/mL) | 16 (≈ 5.33 µg/mL) | 32 (≈ 10.7 µg/mL) | 32 (≈ 10.7 µg/mL) | 32 (≈ 10.7 µg/mL) | 16 (≈ 5.33 µg/mL) | 32 (≈ 10.7 µg/mL) | 32 (≈ 10.7 µg/mL) | 32 (≈ 10.7 µg/mL) | 16 (≈ 5.33 µg/mL) | 32 (≈ 10.7 µg/mL) | 16 (≈ 5.33 µg/mL) | 16 (≈ 5.33 µg/mL) | 
C/C(=N\NC(=O)c1ccncc1)C(=O)Oc1ccc2ccccc2c1 [3j, Naphthalen-2-yl (E)-2-(2-isonicotinoylhydrazineylidene)propanoate] | 125 (≈ 41.7 µg/mL) | 125 (≈ 41.7 µg/mL) | 32 (≈ 10.7 µg/mL) | 32 (≈ 10.7 µg/mL) | 32 (≈ 10.7 µg/mL) | 32 (≈ 10.7 µg/mL) | 16 (≈ 5.33 µg/mL) | 32 (≈ 10.7 µg/mL) | 32 (≈ 10.7 µg/mL) | 32 (≈ 10.7 µg/mL) | 32 (≈ 10.7 µg/mL) | 32 (≈ 10.7 µg/mL) | 16 (≈ 5.33 µg/mL) | 32 (≈ 10.7 µg/mL) | 
C/C(=N\NC(=O)c1ccncc1)C(=O)Oc1cc(C(C)C)ccc1C [3l, 2-Isopropyl-5-methyphenyl (E)-2-(2-isonicotinoylhydrazineylidene)propanoate] | 32 (≈ 10.9 µg/mL) | 64 (≈ 21.7 µg/mL) | 8 (≈ 2.72 µg/mL) | 16 (≈ 5.43 µg/mL) | 32 (≈ 10.9 µg/mL) | 64 (≈ 21.7 µg/mL) | 16 (≈ 5.43 µg/mL) | 32 (≈ 10.9 µg/mL) | 16 (≈ 5.43 µg/mL) | 32 (≈ 10.9 µg/mL) | 16 (≈ 5.43 µg/mL) | 32 (≈ 10.9 µg/mL) | 16 (≈ 5.43 µg/mL) | 16 (≈ 5.43 µg/mL) | 
C/C(=N\NC(=O)c1ccncc1)C(=O)Oc1cccc2cccnc12 [3m, Quinolin-8-yl (E)-2-(2-isonicotinoylhydrazineylidene)propanoate] | 8 (≈ 2.67 µg/mL) | 8 (≈ 2.67 µg/mL) | 8 (≈ 2.67 µg/mL) | 8 (≈ 2.67 µg/mL) | 8 (≈ 2.67 µg/mL) | 8 (≈ 2.67 µg/mL) | 8 (≈ 2.67 µg/mL) | 8 (≈ 2.67 µg/mL) | 8 (≈ 2.67 µg/mL) | 8 (≈ 2.67 µg/mL) | 8 (≈ 2.67 µg/mL) | 8 (≈ 2.67 µg/mL) | 8 (≈ 2.67 µg/mL) | 8 (≈ 2.67 µg/mL) | 
C/C(=N\NC(=O)c1ccncc1)C(=O)Oc1cc(Cl)ccc1Oc1ccc(Cl)cc1Cl [3o, 5-Chloro-2-(2,4-dichlorophenoxy)phenyl (E)-2-(2-isonicotinoylhydrazineylidene)propanoate] | 125 (≈ 59.8 µg/mL) | 125 (≈ 59.8 µg/mL) | 32 (≈ 15.3 µg/mL) | 32 (≈ 15.3 µg/mL) | 32 (≈ 15.3 µg/mL) | 32 (≈ 15.3 µg/mL) | 32 (≈ 15.3 µg/mL) | 32 (≈ 15.3 µg/mL) | 32 (≈ 15.3 µg/mL) | 32 (≈ 15.3 µg/mL) | 32 (≈ 15.3 µg/mL) | 32 (≈ 15.3 µg/mL) | 32 (≈ 15.3 µg/mL) | 32 (≈ 15.3 µg/mL) | 
CC(=O)Nc1ccc(OC(=O)C(C)=NNC(=O)c2ccncc2)cc1 [3p, 4-Acetamidophenyl 2-(2-isonicotinoylhydrazineylidene)propanoate] | 125 (≈ 42.5 µg/mL) | 125 (≈ 42.5 µg/mL) | 32 (≈ 10.9 µg/mL) | 32 (≈ 10.9 µg/mL) | 32 (≈ 10.9 µg/mL) | 64 (≈ 21.8 µg/mL) | 32 (≈ 10.9 µg/mL) | 64 (≈ 21.8 µg/mL) | 32 (≈ 10.9 µg/mL) | 64 (≈ 21.8 µg/mL) | 16 (≈ 5.45 µg/mL) | 32 (≈ 10.9 µg/mL) | 32 (≈ 10.9 µg/mL) | 32 (≈ 10.9 µg/mL) | 
C/C(=N\NC(=O)c1ccncc1)C(=O)OCCn1c([N+](=O)[O-])cnc1C [3q, 2-(2-Methyl-5-nitro-1H-imidazol-1-yl)ethyl (E)-2-(2 isonicotinoylhydrazineylidene)propanoate] | 125 (≈ 45 µg/mL) | 125 (≈ 45 µg/mL) | 32 (≈ 11.5 µg/mL) | 32 (≈ 11.5 µg/mL) | 16 (≈ 5.77 µg/mL) | 32 (≈ 11.5 µg/mL) | 32 (≈ 11.5 µg/mL) | 32 (≈ 11.5 µg/mL) | 32 (≈ 11.5 µg/mL) | 32 (≈ 11.5 µg/mL) | 16 (≈ 5.77 µg/mL) | 32 (≈ 11.5 µg/mL) | 16 (≈ 5.77 µg/mL) | 16 (≈ 5.77 µg/mL) | 
C/C(=N\NC(=O)c1ccncc1)C(=O)Sc1ccccc1 [3s, S-Phenyl (E)-2-(2-isonicotinoylhydrazineylidene)propanethioate] | 64 (≈ 19.2 µg/mL) | 125 (≈ 37.4 µg/mL) | 32 (≈ 9.58 µg/mL) | 64 (≈ 19.2 µg/mL) | 32 (≈ 9.58 µg/mL) | 64 (≈ 19.2 µg/mL) | 32 (≈ 9.58 µg/mL) | 64 (≈ 19.2 µg/mL) | 64 (≈ 19.2 µg/mL) | 64 (≈ 19.2 µg/mL) | 32 (≈ 9.58 µg/mL) | 64 (≈ 19.2 µg/mL) | 32 (≈ 9.58 µg/mL) | 32 (≈ 9.58 µg/mL) | 
